Results: patent US10085976B2, “Pharmaceutical composition for preventing or treating neurodegenerative diseases” (AJOU UNIVERSITY INDUSTRY-ACADEMIC COOPERATION FOUNDATION, priority 2015, dated 2018)

Tests used:
BV-2 cells [1] = experiment: Phagocytosis assay with fluorescent microspheres, aggregated α-syn-treated BV-2 cells; assay type: cell-based, murine; conditions: 20 μM pre-incubation 30 minutes, then 1 NM of aggregated α-syn and fluorescent microspheres for 12 hours, FIG. 4D
Procedure: (§1) FIGS. 4D and 4E are graphs showing phagocytic activity after pre-incubating BV-2 cell and rat primary microglia with 20 μM of NSC87877 as an SHP-1 inhibitor for 30 minutes, and then incubating them with 1 NM of aggregated α-syn and fluorescent microspheres for 12 hours. ** P<0.01 represents a comparison with the control group.
(§2) Further, BV-2 cells, a murine microglial cell line, were grown in Dulbecco's modified Eagle's Medium (DMEM) supplemented with 5% fetal bovine serum (FBS) and maintained at 37° C. in a humidified atmosphere of 5% CO2. Rat primary microglia from the cerebral cortices of 1-day-old Sprague-Dawley rats were cultured as described in the known literature (Kim, K. S., et al., 2012. J Biol Chem. 287, 24862-72.).
(§3) Briefly, BV-2 cells (5×10^4 cells per well) were cultured in a 12 well plate overnight. The medium was then removed and replaced with fresh DMEM containing 5% FBS. […] The five random fields of cells (>100 cells) were counted under a confocal microscope (Zeiss, Germany). Percentage of phagocytic cells was analyzed by a known method (Park, J. Y., et al., 2008. Glia. 56, 1215-23.). For cell viability assay, BV-2 cells were treated with 1 μM of aggregated α-syn for 12 hours, and then LDH release was measured using an LDH-cytotoxicity assay kit (Biovision, CA) according to the manufacturer's instructions. […]

rat primary microglia = experiment: Phagocytosis assay with fluorescent microspheres, aggregated α-syn-treated rat primary microglia; assay type: cell-based; conditions: 20 μM pre-incubation 30 minutes, then 1 NM of aggregated α-syn and fluorescent microspheres for 12 hours, FIG. 4E
Procedure: as §1, §2, §3

BV-2 cells [2] = experiment: α-syn propagation, two-chamber co-culture with α-syn-overexpressed SH-SY5Y cells, immunostaining (BV-2); assay type: cell-based, murine; conditions: co-culture 12 hours, vs PBS-treated group, FIGS. 10B, 10E
Procedure: FIGS. 10B and 10E are images and graphs showing that α-syn propagation was reduced by treatment of SHP-1/2 inhibitor, NSC87877. *** P<0.001 represents a comparison with the PBS-treated group.
(§4) The prepared SHP-1 knockdown SH-SY5Y dopaminergic neuronal cell lines (SHP-1 KD1 and SHP-1 KD2) were co-cultured with α-syn-overexpressed SH-SY5Y dopaminergic neuronal cell line using the two-chamber system for 12 hours. The co-culture is briefly summarized as follows. SH-SY5Y or BV2 or OLN93 cell was seeded at a density of 4×10^4 cell per well on a 12-well cover glass, and α-syn-overexpressed SH-SY5Y cell was seeded at a density of 4×10^4 cell per well on a 12-well transwell. Each of the cells was incubated for one day, and then the transwell (α-syn-overexpressed SH-SY5Y cell) was transferred to the 12-well cover glass (SH-SY5Y cell), followed by co-culture for 12 hours, and then immunostaining.

SH-SY5Y cells = experiment: α-syn propagation, two-chamber co-culture with α-syn-overexpressed SH-SY5Y cells, immunostaining (SH-SY5Y); assay type: cell-based, human; conditions: co-culture 12 hours, vs PBS-treated group, FIGS. 10I, 10K
Procedure: FIGS. 10I and 10K are images and graphs showing that propagation of aggregated α-syn is reduced in SH-SY5Y cell line treated with the SHP-1,2 inhibitor NSC87877, similar to the SHP-1 knockdown cells. *** P<0.001 represents a comparison with the PBS-treated group.
as §4

OLN 93 cell line = experiment: α-syn propagation, two-chamber co-culture with α-syn-overexpressed SH-SY5Y cells, immunostaining (OLN 93); assay type: cell-based; conditions: OLN 93 cells; co-culture 12 hours; vs PBS-treated group; FIGS. 10N, 10P
Procedure: FIGS. 10N and 10P are images and graphs showing that propagation of α-syn is reduced in OLN 93 cell line treated with the SHP-1,2 inhibitor NSC87877. *** P<0.001 represents a comparison with the PBS-treated group.
as §4

rat microglia = experiment: α-syn propagation, two-chamber co-culture with α-syn-overexpressed SH-SY5Y cells, immunostaining (primary microglia); assay type: cell-based; conditions: vs PBS-treated group, FIGS. 10C, 10F
Procedure: FIGS. 10C and 10F are images and graphs showing that α-syn propagation was reduced in rat microglia by treatment of the SHP-1/2 inhibitor, NSC87877. Scale bar indicates 20 μm, and *** P<0.001 represents a comparison with the PBS-treated group.
as §4

[3] = test system: differentiated SH-SY5Y cells; experiment: LDH release cytotoxicity assay, aggregated α-syn on differentiated SH-SY5Y dopaminergic neurons; assay type: cell-based, human; conditions: 1 μM aggregated α-syn and 50 μM inhibitor for 2 days, FIG. 12B
Text: FIG. 12B is a graph showing the effect of the SHP-1/2 inhibitor, NSC87877 on cytotoxicity of aggregated α-syn in undifferentiated SH-SY5Y cells and differentiated SH-SY5Y cells.
FIGS. 12C and 12D are images and graphs showing the effect of the SHP-1/2 inhibitor, NSC87877 on cytotoxicity of aggregated α-syn in differentiated SH-SY5Y cells. ** P<0.01 represents a comparison with the PBS-treated SHSY5Y.
To differentiate SH-SY5Y cells to dopaminergic neurons, SH-SY5Y cells seeded in a culture plate were cultured in a medium containing 50 μM of retinoic acid for 5 days. In this regard, the medium was replaced by a fresh medium containing 50 μM of retinoic acid at 3 days, 4 days, and 5 days after initiation of the culture. Further, in order to assess cytotoxicity, the differentiated SH-SY5Y dopaminergic neurons and undifferentiated SH-SY5Y dopaminergic neurons were seeded in 12-well, respectively, followed by incubation for one day. Thereafter, they were cultured in a medium containing 1 μM of aggregated α-syn and 50 μM of the SHP-1/-2 inhibitor NSC87877 for 2 days, and LDH (lactate dehydrogenase) release assay was performed according to the manufacturer's instructions.

[4] = test system: A53Tα-syn-overexpressed SHSY5Y cells; experiment: Intracellular aggregation of eGFP-tagged A53T α-syn in co-culture, confocal microscopy; assay type: cell-based, human; conditions: co-culture with α-syn-overexpressed SHSY5Y, 5 days after treatment; FIG. 14C
Procedure: FIG. 14C is an image of confocal microscopy after differentiation with retinoic acid for 5 days in the co-culture of A53Tα-syn-overexpressed SHSY5Y and α-syn-overexpressed SHSY5Y under treatment of the SHP-1/2 inhibitor, NSC87877. Scale bar indicates 20 μm.
First, eGPF-tagged A53Tα-syn-overexpressed SHSY5Y cell line was prepared using lentivirus, and the prepared eGPP-tagged A53Tα-syn-overexpressed SHSY5Y cell line and α-syn-overexpressed SHSY5Y cell line were mixed, followed by co-culture. […] At 5 days after the co-culture, intracellular distribution of eGFP-tagged A53Tα-syn was observed under confocal microscopy.
In this regard, the SHP-1/2 inhibitor, NSC87877 was treated and A53Tα-syn-overexpressed SHSY5Y cell line and α-syn-overexpressed SHSY5Y cell line were mixed, followed by co-culture. At 5 days after NSC 87877 treatment and co-culture, intracellular distribution of eGFP-tagged A53Tα-syn was observed under confocal microscopy.

Question: How did the “Effect on inhibition of microglial phagocytosis by aggregated α-syn” value (BV-2 cells [1]) turn out when `O=S(=O)(O)c1ccc2cc(N=Nc3cc(S(=O)(=O)O)c4cccnc4c3O)ccc2c1` [NSC87877] was run?
Answer: The value was “efficiently rescued the inhibitory effect of aggregated α-syn on microglial phagocytosis”.

Question: And the “Effect on inhibition of microglial phagocytosis by aggregated α-syn” value (rat primary microglia)?
Answer: The value was “efficiently rescued the inhibitory effect of aggregated α-syn on microglial phagocytosis”.

Question: And the α-syn propagation (BV-2 cells [2])?
Answer: Its α-syn propagation is “α-syn propagation was also reduced”.

Question: And the α-syn propagation (SH-SY5Y cells)?
Answer: The α-syn propagation was “α-syn propagation was also reduced”.

Question: What about the α-syn propagation (OLN 93 cell line) of the same molecule?
Answer: Its α-syn propagation is “α-syn propagation was also reduced”.

Question: What about the α-syn propagation (rat microglia) of the same molecule?
Answer: The α-syn propagation was “reduced α-syn propagation was observed”.

Question: What about the “Neurotoxicity (cytotoxicity, LDH release) by aggregated α-syn” value [3] of the same molecule?
Answer: The value was “neurotoxicity by aggregated α-syn was reduced”.

Question: What about the “Intracellular aggregation of eGFP-tagged A53Tα-syn (eGFP distribution)” value [4] of the same molecule?
Answer: Its value is “no aggregation in the cells”.
